# From patent US20220267310A1, “QUINAZOLINE AND CINNOLINE DERIVATIVES AS DNA-PK INHIBITOR” (MEDSHINE DISCOVERY INC., priority 2019, published 2022)
# Like-named read-outs stand apart in the source and are kept apart here.
# Assays:
# [1] = tested on: human head and neck cancer FaDu cell subcutaneous xenograft tumor; experiment: FaDu subcutaneous xenograft, mono and combination with radiotherapy; format: in vivo; details: for Tumor volume (mm^3), 3 days after administration: day 3; for Tumor volume (mm^3), 7 days after administration: day 7; for Tumor volume (mm^3), 10 days after administration: day 10; for Tumor volume (mm^3), 14 days after administration: day 14; for Tumor volume (mm^3), 17 days after administration: day 17; for Tumor volume (mm^3), 23 days after administration: day 23; for RTV (21th day) / T/C (%) (21th day) / TGI (%) (21th day) / Tumor volume (mm^3) (0th day) / Tumor volume (mm^3) (21th day): 50 mg/kg, PO
# Protocol: Experiment purpose: The antitumor activity of the tested compound was evaluated in a nude mouse model of human head and neck cancer FaDu cell subcutaneous xenograft tumor
# Experimental animals: Female BALB/c nude mice, 6-8 weeks old, weighing 17-23 grams; supplier: B&K Universal Group Limited
# Human head and neck cancer FaDu cell (ATCC, Manassas. Virginiaite, item number: HTB-43) was cultured in vitro in a culture condition of EMEM medium with 10% fetal bovine serum, 100 U/mL penicillin and 100 μg/mL streptomycin, incubated at 37° C. and 5% CO2. Conventional digestive treatment passage was carried out using pancreatic enzyme—EDTA twice a week.
# Each mouse was subcutaneously inoculated with 0.1 mL ([…]) FaDu cells at the right dorsal position, and when the average tumor volume reaches about 106 mm^3, randomization was used for initiating drug administration.
# The tested compound was prepared as a 5 mg/mL clarified solution with 10% DMSO+50% polyethylene glycol 400+40% water as the solvent. Preparation was conducted every three days.
# The experimental indicators refers to study whether tumor growth was inhibited, delayed, or cured. Tumor diameter was measured twice a week with a vernier caliper. The calculation formula of the tumor volume was V=0.5a×b^2, and a and b represent the long diameter and short diameter of the tumor, respectively.
# The antitumor efficacy of the compound was evaluated by TGI (%) or relative tumor proliferation rate T/C (%). TGI (%) reflects the tumor growth inhibition rate. The calculation of TGI (%): TGI (%)=[1−(average tumor volume at the end of administration of a certain treatment group−average tumor volume at the beginning of administration of the treatment group)/(average tumor volume at the end of treatment in solvent control group−average tumor volume at the beginning of treatment in solvent control group)]×control group.
# Relative tumor proliferation rate T/C (%): the calculation formula was as follows: T/C %=[…] TRTV/CRTV group (TRTV: treatment group RTV: CRTV: negative control group RTV). According to results of tumor measurement. Relative Tumor Volume (RTV) was calculated by the formula RTV=Vt/V0, where V0 was the average tumor volume measured in group administration (i.e., d0), and Vt was the average tumor volume measured in a certain single measurement. TRTV and CRTV collect data on the same day.
# Statistic analysis includes an average value and a standard error (SEM) of tumor volume at each time point for each group. […] If there was no significant difference in F value, Dunnet (2-sided) method was applied to analysis. All data were analyzed using SPSS 17.0. P<0.05 was considered as having a significant difference.
# [2] = Pharmacokinetic evaluation in mice, IV and PO; format: in vivo, Balb/c female mice; details: for Tlast / AUC(0-t) / C0 / clearance / half-life / Vd / Cmax / Tmax: mouse plasma; for bioavailability / AUC(0-t) / C0 / clearance / half-life / Vd / Cmax / Tmax: female, Balb/c; for bioavailability: plasma, mouse; for Vd: read-out: Vdss; for Tmax: read-out: Tmax
# Protocol: The tested compound was mixed with 10% DMSO/50% PEG400/40% water, vortexized and ultrasonic to prepare 0.2 mg/mL or 0.4 mg/ml, approximately clarified solution, which was filtered by a microporous membrane and then standby. Balb/c female mice of 18-20 g were selected and given the candidate compound solution intravenously at a dose of 1 or 2 mg/kg. The tested compound was mixed with 10% DMSO/50% PEG400/40% water, vortexized and ultrasonic to prepare 0.2 mg/mL or 1 mg/mL approximately clarified solution, which was filtered by a microporous membrane and then standby. Balb/c female mice of 18 to 20 g were selected and given orally the candidate compound solution at a dose of 2 or 10 mg/kg. Whole blood was collected for a certain period of time, and plasma was prepared. Drug concentration was analyzed by LC-MS/MS method, and pharmacokinetic parameters were calculated by Phoenix WinNonlin software (US Pharsight company).
# C0: instantaneous concentration required after intravenous injection; Cmax: the highest blood concentration after administration; Tmax: time required to reach peak concentration after administration; T1/2: the time required for blood drug concentration to decrease by half; Vdss: apparent volume of distribution, which refers to the ratio constant of drug dosage to blood concentration when a drug reaches dynamic equilibrium in vivo. Cl: clearance rate, referring to drug apparent distribution volume number removed from the body per unit time; Tlast: time of last detection point: AUC0-last: an area under a drug duration curve, referring to an area surrounded by the blood drug concentration curve on the time axis; Bioavailability: a measure of the rate and extent of drug absorption into the blood circulation, which was an important index to evaluate drug absorption degree.
# [3] = 50 mg/kg + 2 Gy, average ± SEM, n = 8
# [4] = 50 mg/kg alone, average ± SEM, n = 8
# [5] = QD, alone, average ± SEM, n = 8
compound,measurement,setting,value
"COc1ccc([C@@H](O)c2cc(-c3nncc4cc(N5CCOCC5)ccc34)c(F)cc2Cl)nn1 [Embodiment M3814, reference compound]","Tumor volume (mm^3), 3 days after administration",[1]; [3],168 ± 10 mm^3
same,"Tumor volume (mm^3), 7 days after administration",[1]; [3],106 ± 19 mm^3
same,"Tumor volume (mm^3), 10 days after administration",[1]; [3],68 ± 16 mm^3
same,"Tumor volume (mm^3), 14 days after administration",[1]; [3],25 ± 9 mm^3
same,"Tumor volume (mm^3), 17 days after administration",[1]; [3],12 ± 4 mm^3
same,"Tumor volume (mm^3), 23 days after administration",[1]; [3],1 ± 1 mm^3
same,"Tumor volume (mm^3), 28 days after administration","[1]; 50 mg/kg + 2 Gy, day 28, average ± SEM, n = 8",1 ± 1 mm^3
same,"Tumor volume (mm^3), 31 days after administration","[1]; 50 mg/kg + 2 Gy, day 31, average ± SEM, n = 8",0 ± 0 mm^3
same,"Tumor volume (mm^3), 35 days after administration","[1]; 50 mg/kg + 2 Gy, day 35, average ± SEM, n = 8",0 ± 0 mm^3
same,"Tumor volume (mm^3), 42 days after administration","[1]; 50 mg/kg + 2 Gy, day 42, average ± SEM, n = 8",0 ± 0 mm^3
same,"Tumor volume (mm^3), 49 days after administration","[1]; 50 mg/kg + 2 Gy, day 49, average ± SEM, n = 8",0 ± 0 mm^3
same,"Tumor volume (mm^3), 56 days after administration","[1]; 50 mg/kg + 2 Gy, day 56, average ± SEM, n = 8",0 ± 0 mm^3
same,"Tumor volume (mm^3), 63 days after administration","[1]; 50 mg/kg + 2 Gy, day 63, average ± SEM, n = 8",0 ± 0 mm^3
same,"Tumor volume (mm^3), 70 days after administration","[1]; 50 mg/kg + 2 Gy, day 70, average ± SEM, n = 8",0 ± 0 mm^3
same,animal death or euthanasia during the study,"[1]; 50 mg/kg alone, one animal of the group",found dead on day 23 after group administration
same,"Tumor volume (mm^3), 3 days after administration",[1]; [4],167 ± 20 mm^3
same,"Tumor volume (mm^3), 7 days after administration",[1]; [4],322 ± 35 mm^3
same,"Tumor volume (mm^3), 10 days after administration",[1]; [4],502 ± 48 mm^3
same,"Tumor volume (mm^3), 14 days after administration",[1]; [4],752 ± 64 mm^3
same,"Tumor volume (mm^3), 17 days after administration",[1]; [4],997 ± 109 mm^3
same,"Tumor volume (mm^3), 23 days after administration",[1]; [4],1831 ± 254 mm^3
same,RTV (21th day),[1]; QD + radiotherapy 2 Gy,0.03 ± 0.02
same,T/C (%) (21th day),[1]; QD + radiotherapy 2 Gy,0.24%
same,TGI (%) (21th day),[1]; QD + radiotherapy 2 Gy,108.46%
same,Tumor volume (mm^3) (0th day),"[1]; QD + radiotherapy 2 Gy, 5-day radiotherapy, 2-day withdrawal, average ± SEM, n = 8",106 ± 5 mm^3
same,Tumor volume (mm^3) (21th day),"[1]; QD + radiotherapy 2 Gy, average ± SEM, n = 8",3 ± 2 mm^3
same,RTV (21th day),"[1]; QD, alone",12.35 ± 1.10
same,T/C (%) (21th day),"[1]; QD, alone",99.60%
same,TGI (%) (21th day),"[1]; QD, alone",−0.43%
same,Tumor volume (mm^3) (0th day),[1]; [5],106 ± 5 mm^3
same,Tumor volume (mm^3) (21th day),[1]; [5],1320 ± 174 mm^3
same,Tlast,[2]; IV(1 mg/kg),6.00 h
same,Tlast,[2]; IV(2 mg/kg),4.00 h
same,Tlast,[2]; PO(2 mg/kg),8.00 h
same,Tlast,[2]; PO(10 mg/kg),8.00 h
same,bioavailability,[2]; PO(2 mg/kg),25.8%
same,bioavailability,[2]; PO(10 mg/kg),54%
same,AUC(0-t),[2]; IV(1 mg/kg),1.33 µM·h
same,C0,[2]; IV(1 mg/kg),1970 nM
same,clearance,[2]; IV(1 mg/kg),25.9 mL/min/kg
same,half-life,[2]; IV(1 mg/kg),42.4 min
same,Vd,[2]; IV(1 mg/kg),1.34 L/kg
same,AUC(0-t),[2]; IV(2 mg/kg),1.41 µM·h
same,C0,[2]; IV(2 mg/kg),2160 nM
same,clearance,[2]; IV(2 mg/kg),49 mL/min/kg
same,half-life,[2]; IV(2 mg/kg),28.7 min
same,Vd,[2]; IV(2 mg/kg),1.9 L/kg
same,AUC(0-t),[2]; PO(2 mg/kg),0.688 µM·h
same,Cmax,[2]; PO(2 mg/kg),580 nM
same,half-life,[2]; PO(2 mg/kg),128 min
same,Tmax,[2]; PO(2 mg/kg),15 min
same,AUC(0-t),[2]; PO(10 mg/kg),3.73 µM·h
same,Cmax,[2]; PO(10 mg/kg),2060 nM
same,half-life,[2]; PO(10 mg/kg),85.8 min
same,Tmax,[2]; PO(10 mg/kg),30 min
